pKi: −log10 of the molar value. Where a name gives a salt, the structure may show the parent alone.
Columns and labels:
[1] = biological target: human recombinant 5-HT2A receptor (Homo sapiens (Human), UniProt P28223); assay: Determination of Ki value at 5-HT2A receptor (radioligand binding, [3H]-Ketanserine); details: [3H]-Ketanserine 1.75 nM, average of three independent experiments
Description: The reaction was terminated by rapid vacuum filtration onto the glass fiber filters.

[2] = test system: theta power in dorsal hippocampus of anesthetized male Wistar rats; assay: Evoked theta modulation in dorsal hippocampus of anesthetized male Wistar rats; format: in vivo, rat; details: donepezil 0.3 mg/kg, i.v. alone
Description: Additionally one electrode was implanted into the cerebellum which served as a reference. Hippocampal θ rhythm was evoked via a 6-s electrical stimulation train (20-160 μA, 0.3-ms pulse duration, 250 Hz) delivered to the NPO at a rate of 0.01 trains/s with a Grass S88 stimulator and PSIU6 stimulus isolation unit (Grass Medical Instruments, Quincy, Mass.). EEG was recorded at a rate of 1000 Hz using Ponemah (Version 5.2) software and stored for off-line analysis using NeuroScore™ (Version 3.0). Baseline amplitude level was achieved by using the current required to elicit θ rhythm to 50% of the maximal amplitude under control conditions.
Power in the θ rhythm frequency in the stimulation period during the 30 min baseline period was calculated and the percent changes in these measures post treatment were calculated. […] Statistical significance was considered at a p value less than 0.05.

[3] = test system: acetylcholine levels in ventral hippocampus of male Wistar rats; assay: Acetylcholine modulation in ventral hippocampus (microdialysis), combination treatment; format: in vivo, rat; details: s.c. alone
Description: However, there were minor modifications in the microdialysis experiment.
After surgical recovery of 4-5 days, male Wistar rats were connected to dual quartz lined two-channel liquid swivel (Instech, UK) on a counter balance lever arm, which allowed unrestricted movements of the animal. Sixteen hours before start of study, a pre-equilibrated microdialysis probe (4 mm dialysis membrane) was inserted into the ventral hippocampus through the guide cannula. On the day of study, the probe was perfused with aCSF at a flow rate of 1.5 μL/min and a stabilization period of 2 h was maintained. […] Dialysates were stored below −50° C. prior to analysis.
All microdialysis data for acetylcholine was plotted as percent change from mean dialysate basal concentrations with 100% defined as the average of five pre-dose values. […] Statistical significance was considered at a p value less than 0.05. Incorrect probe placement was considered as criteria to reject the data from animal.

[4] = Rodent pharmacokinetic study for assessment of drug interaction; details: compound 1 3 mg/kg, p.o., donepezil 1 mg/kg, s.c.; male Wistar rats
Description: Male Wistar rats (260±50 grams) were used as experimental animals. Animals were housed individually in polypropylene cages and acclimatized for three days prior to study.
Blood was collected through retro orbital plexus under isoflurane anesthesia. Collected blood was transferred into a pre-labeled eppendorf tube containing 10 μL of sodium heparin as an anticoagulant. Blood samples were collected at following time points: 0.33, 0.66, 1, 1.5, 2, 4, 6, 8 and 24 hours post dose. Blood was centrifuged at 4000 rpm for 10 minutes. Plasma was separated and stored frozen at −80 ° C. until analysis. […] The test compounds were quantified in the calibration range around 0.05-100 ng/mL in plasma. Study samples were analyzed using calibration samples in the batch and quality control samples spread across the batch.
Pharmacokinetic parameters Cmax, Tmax and AUClast were calculated by non-compartmental model using Phoenix WinNonlin 6.4.0 version Software package.

[5] = test system: acetylcholine levels in ventral hippocampus of male Wistar rats; assay: Acetylcholine modulation in ventral hippocampus (microdialysis), test compound alone; format: in vivo, rat
Description: Male Wistar rats (240-300 g body weight) were stereotaxically implanted with a microdialysis guide cannula in ventral hippocampus (AP: −5.2 mm, ML: +5.0 mm, DV: −3.8 mm) under isoflurane anesthesia. […] The rats were allowed to recover individually for four-five days in a round bottom Plexiglas bowl with free access to feed and water.
One day prior to the microdialysis experiment, rats were connected to a dual quartz lined two-channel liquid swivel (Instech, UK) on a counter balance lever arm, which allowed unrestricted movements of the animal. […] On the day of experiment, perfusion rate was changed to 1.2 μL/min and stabilization period of atleast 2 hours was maintained. […] Dialysate samples were collected for additional period of 6 h using CMA/170 refrigerated fraction collector.
All microdialysis data were plotted as percent change from mean dialysate basal concentrations with 100% defined as the average of five predose values. The AUC was calculated by trapezoidal rule using WinNonlin® (5.0.1 version, Pharsight Corp. CA). The statistical significance between the mean AUC values of treatment group with vehicle was calculated using Dunnett's multiple comparison test. For each treatment group, the percent increase in acetylcholine levels was compared to the vehicle group using two-way analysis of variance (time and treatment), followed by Bonferroni post test. […]

COc1ccc2c(c1)c(CN1CCN(C)CC1)cn2S(=O)(=O)c1ccc(F)cc1 [Compound 2, 1-[(4-Fluorophenyl)sulfonyl]-5-methoxy-3-[(4-methyl-1-piperazinyl)methyl]-1H-indole dihydrochloride]
pKi [1]: < 5.00

COc1cc2c(cc1OC)C(=O)C(CC1CCN(Cc3ccccc3)CC1)C2 (stereo not shown) [Donepezil]
hippocampal theta power [2]: moderate increase
maximum hippocampal acetylcholine levels ([3]; donepezil 1 mg/kg): 703±134 % of basal levels

COc1ccc2c(c1)c(CN1CCN(C)CC1)cn2S(=O)(=O)c1ccccc1Br [Compound 1, 1-[(2-Bromophenyl)sulfonyl]-5-methoxy-3-[(4-methyl-1-piperazinyl)methyl]-1H-indole dimesylate monohydrate]
difference in plasma exposures administered alone or in combination [4]: No significant difference
increase in hippocampal acetylcholine levels ([5]; 3 mg/kg, p.o., ventral hippocampus, male Wistar rats): about 172%
Area under the curve value of acetylcholine change vs vehicle treatment ([5]; compound 1 p.o., FIG. 2): significantly higher

CCN(C)C(=O)Oc1cccc([C@H](C)N(C)C)c1 [rivastigmine, Rivastigmine]
increase in hippocampal acetylcholine level ([3]; rivastigmine 0.5 mg/kg): about 3 fold

Source: patent publication US11458135B2, “Combination of pure 5-HT6 receptor antagonists with acetylcholinesterase inhibitors” (priority 2016, dated 2022)
